Assay results: patent EP0786252A1 (priority 1994, dated 1996)
Where two headings read alike, the source gives them in different places.

Assays:
[1] = system: lymphocytic leukemia P388 cells; experiment: Antiproliferative activity against drug-resistant tumor cells (cell count after 72 hours); type: cell-based
Procedure: (§1) Compound (I) was tested for its antiproliferative activity against lymphocytic leukemia P388 cells, adriamycin-resistant P388 cells (P388/ADM), cisplatin-resistant P388 cells (P388/CDDP), cyclophosphamide-resistant P388 cells (P388/CPM), and mitomycin C-resistant P388 cells (P388/MMC), in the manner described below.
P388 cells were suspended in an RPMI-1640 medium containing 10 % fetal calf serum, 100 units/ml penicillin, 100 µg/ml streptomycin and 20 µM 2-mercaptoethanol at a concentration of 3 x 10^4 cells/ml, and 0.1 ml of the cell suspension was put into each well of a 96-well microplate. The cells were incubated in a carbon dioxide incubator (5 % carbon dioxide) overnight at 37°C, and 0.05 ml/well of a compound (I) that had been suitably diluted with the medium was added to each well.
(§2) The cells were further incubated in the carbon dioxide incubator for 72 hours, then the culture supernatant was removed, and the number of the cells was counted using a cell counter. The number of non-treated cells was compared with that of cells treated with the compound (I), from which was obtained the concentration of the chemical that inhibited 50 % of the cell growth. This is referred to as IC50.

[2] = system: adriamycin-resistant P388 cells (P388/ADM); experiment: as above; type: cell-based
Procedure: as §1
(§3) P388 cells were suspended in an RPMI-1640 medium containing 10 % fetal calf serum, 100 units/ml penicillin, 100 µg/ml streptomycin and 20 µM 2-mercaptoethanol at a concentration of 3 x 10^4 cells/ml, and 0.1 ml of the cell suspension was put into each well of a 96-well microplate.
as §2
(§4) For the others, P388/ADM cells, P388/CDDP cells, P388/CPM cells and P388/MMC cells, IC50 of the compound (I) was obtained in the same manner as above.

[3] = system: mitomycin C-resistant P388 cells (P388/MMC); experiment: as above; type: cell-based
Procedure: as §1, §3, §2, §4

[4] = system: cisplatin-resistant P388 cells (P388/CDDP); experiment: as above; type: cell-based
Procedure: as §1, §3, §2, §4

[5] = system: cyclophosphamide-resistant P388 cells (P388/CPM); experiment: as above; type: cell-based
Procedure: as §1, §3, §2, §4

[6] = Acute toxicity, intravenous administration; type: in vivo; conditions: mouse, in vivo, male ddY mice, 30 days after administration, probit analysis
Description: (§5) Compound (I) was intravenously administered to ddY mice (male; body weight, 19 to 21 g). 30 days after the administration, LD50 and LD10 were obtained through probit analysis.

ddY mice = experiment: Acute toxicity, intravenous administration; type: in vivo; conditions: male ddY mice; for Death Rate: 30 days
Description: as §5

COc1cccc2c1C(=O)c1c(O)c3c(c(O)c1C2=O)C[C@@](O)(C(=O)CO)C[C@@H]3O[C@H]1C[C@H](N)[C@H](O)[C@H](C)O1 [ADM, Adriamycin]
IC50 ([1]; Mus musculus, P388 cells, 72 hours incubation, read-out: IC50): 6.62 nM
IC50 ([2]; Mus musculus, P388/ADM cells, 72 hours incubation, read-out: IC50): 571 nM
IC50 ([3]; Mus musculus, P388/MMC cells, 72 hours incubation, read-out: IC50): 14.7 nM
IC50 ([4]; Mus musculus, P388/CDDP cells, 72 hours incubation, read-out: IC50): 18.1 nM
IC50 ([5]; Mus musculus, P388/CPM cells, 72 hours incubation, read-out: IC50): 5.79 nM

CO[C@@]12[C@H](COC(N)=O)C3=C(C(=O)C(C)=C(N)C3=O)N1C[C@@H]1N[C@@H]12 [MMC, Mitomycin C]
IC50 ([1]; Mus musculus, P388, 72 h): 40.2 nM
IC50 ([2]; Mus musculus, P388/ADM, 72 h): 56.9 nM
IC50 ([3]; Mus musculus, P388, 72 h): > 300 nM
IC50 ([4]; Mus musculus, P388, 72 h): 186 nM
IC50 ([5]; Mus musculus, P388, 72 h): 94.4 nM

COC(=O)c1c(C)[nH]c2c(OC(=O)N3CCN(C)CC3)cc3c(c12)C(CBr)CN3C(=O)c1cc2cc(OC)c(OC)c(OC)c2[nH]1 (stereo not shown) [Compound 1]
IC50 ([1]; Mus musculus, P388, 72 h): 8.17 nM
LD50 at 720 h [6]: 0.81 mg/kg
Mean Survival Time (ddY mice; Dose 0.48 mg/kg): No died
Death Rate (ddY mice; Dose 0.48 mg/kg): 0/20
Mean Survival Time (ddY mice; Dose 0.57 mg/kg): 11.6 +/- 3.4 days +/- SD
Death Rate (ddY mice; Dose 0.57 mg/kg): 2/20
Mean Survival Time (ddY mice; Dose 0.69 mg/kg): 11.6 +/- 1.5 days +/- SD
Death Rate (ddY mice; Dose 0.69 mg/kg): 3/20
Mean Survival Time (ddY mice; Dose 0.82 mg/kg): 8.3 +/- 1.8 days +/- SD
Death Rate (ddY mice; Dose 0.82 mg/kg): 10/20
Mean Survival Time (ddY mice; Dose 0.99 mg/kg): 6.8 +/- 1.6 days +/- SD
Death Rate (ddY mice; Dose 0.99 mg/kg): 17/20
Mean Survival Time (ddY mice; Dose 1.2 mg/kg): 5.6 +/- 1.8 days +/- SD
Death Rate (ddY mice; Dose 1.2 mg/kg): 20/20
LD10 (ddY mice; 30 days after administration, probit analysis): 0.63 mg/kg
IC50 ([2]; Mus musculus, P388/ADM, 72 h): 15.6 nM
IC50 ([3]; Mus musculus, P388, 72 h): 15.3 nM
IC50 ([4]; Mus musculus, P388, 72 h): 19.8 nM
IC50 ([5]; Mus musculus, P388, 72 h): 6.34 nM

[NH2][Pt]([NH2])([Cl])[Cl] [CDDP, Cisplatin]
IC50 ([1]; P388 cells, 72 hours incubation, read-out: IC50): 75.4 nM
IC50 ([2]; P388/ADM cells, 72 hours incubation, read-out: IC50): 88.3 nM
IC50 ([3]; P388/MMC cells, 72 hours incubation, read-out: IC50): 1090 nM
IC50 ([4]; P388/CDDP cells, 72 hours incubation, read-out: IC50): 4080 nM
IC50 ([5]; P388/CPM cells, 72 hours incubation, read-out: IC50): 504 nM
